Measurements reported in patent publication US9957219B2, “Antidiabetic bicyclic compounds” (Merck Sharp & Dohme Corp., priority 2013, dated 2018).

Assays:
Human GPR40 [1] = molecular target: T1, Human GPR40 (Homo sapiens, UniProt O14842); assay: Inositol Phosphate Turnover (IP1) assay in HEK cells stably expressing human GPR40; format: cell-based; parameters: expressed in transfected cells; host or cells: HEK cells stably expressing the aequorin reporter
Experimental: (§1) Human and mouse GPR40 stable cell-lines were generated in CHO cells stably expressing NFAT BLA (Beta-lactamase). A human GPR40 stable cell-line was generated in HEK cells stably expressing the acquorin expressing reporter. The expression plasmids were transfected using lipofectamine (Life Technologies) following manufacturer's instructions. Stable cell-lines were generated following drug selection.
The assay was performed in 96-well format. HEK cells stably expressing human GPR40 were plated to be 60-80% confluent within 72 h. After 72 h, the plates were aspirated and the cells washed with inositol-free DMEM (ICN). The wash media was replaced with 150 μL of 3H-inositol labeling media (inositol-free media containing 0.4% human albumin or 0.4% mouse albumin, 1× pen/strep antibiotics, glutamine, 25 mM HEPES to which was added 3H-myo-inositol NEN #NET114A 1 mCi/mL, 25 Ci/mmol diluted 1:150 in loading media with a final specific radioactivity of 1 μCi/150 μL). Alternatively, the human and mouse albumin were added after the overnight labeling step before the addition of LiCl.
The assay was typically run the next day after 18 h labeling. On the day of the assay, 5 μL of 300 mM LiCl were added to all wells and incubated at 37 degrees for 20 min. 0.75 μL of 200× compounds were added and incubated with the cells for 60 min at 37 degrees. The media was then aspirated off and the assay terminated with the addition of 60 μL 10 mM formic acid. The cells were lysed for 60 min at room temperature. 15-30 μL of lysate was mixed with 70 μL/1 mg YSi SPA beads (Amersham) in clear bottom Isoplates. The plates were shaken for 2 h at room temperature. Beads were allowed to settle and the plates are counted in the Wallac Microbeta.

Human GPR40 [2] = molecular target: T1, Human GPR40; assay: FLIPR assay, agonist-induced calcium mobilization in GPR40/CHO NFAT BLA cells; format: cell-based; parameters: expressed in transfected cells
Experimental: as §1
FLIPR (Fluorimetric Imaging Plate Reader, Molecular Devices) assays were performed to measure agonist-induced calcium mobilization of the stable clones. For the FLIPR assay, one day before assay, GPR40/CHO NFAT BLA cells were seeded into black-wall-clear-bottom 384-well plates (Costar) at 1.4×10e4 cells/20 μL medium/well. The cells were incubated with 20 μl/well of the assay buffer (HBSS, 0.1% BSA, 20 mM HEPES, 2.5 mM probenecid, pH 7.4) containing 8 μM fluo-4, AM, 0.08% pluronic acid at room temperature for 100 minutes. Fluorescence output was measured using FLIPR. Compounds were dissolved in DMSO and diluted to desired concentrations with assay buffer. 13.3 μL/well of compound solution was added.

T1 sequence (O14842 whole entry): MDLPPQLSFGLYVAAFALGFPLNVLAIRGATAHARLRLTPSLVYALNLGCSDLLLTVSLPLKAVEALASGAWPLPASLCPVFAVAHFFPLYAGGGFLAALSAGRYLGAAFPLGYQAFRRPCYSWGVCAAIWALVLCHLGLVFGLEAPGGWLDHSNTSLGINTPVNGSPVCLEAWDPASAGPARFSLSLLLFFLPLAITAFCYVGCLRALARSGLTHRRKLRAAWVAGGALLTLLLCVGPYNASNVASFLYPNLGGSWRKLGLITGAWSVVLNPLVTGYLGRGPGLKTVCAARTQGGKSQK

| Compound | EC50 (Human GPR40 [1]) [nM] | EC50 (Human GPR40 [2]) [nM] |
| --- | --- | --- |
| COc1ccc(F)c(-c2ccc3c(c2)CC[C@H]3Oc2cccc([C@@H](CC(=O)O)C3CC3)c2)c1 [Example 1] | 64 | 2 |
| COc1ccc(F)c(-c2ccc3c(c2)CC[C@H]3Oc2cccc([C@H](C3CC3)[C@H](C)C(=O)O)c2)c1 [Example 2] | 2.9 | 0.4 |
| COc1ccc(F)c(-c2ccc3c(c2)CC[C@H]3Oc2cccc([C@H](C3CC3)[C@H](C)C(=O)O)c2F)c1 [Example 4] | 2.8 | 0.2 |
| COc1ccc(F)c(-c2ccc3c(c2)CC[C@H]3Oc2cccc([C@H](C3CC3)[C@@H](C)C(=O)O)c2F)c1 [Example 5] | 154 | 8 |
| COc1ccc(F)c(-c2ccc3c(c2C#N)CC[C@H]3Oc2cccc([C@@H](CC(=O)O)C3CC3)c2)c1 [Example 30] | 412 | 22 |
| COc1ccc(F)c(-c2cc(F)c3c(c2)CC[C@H]3Oc2cccc([C@@H](CC(=O)O)C3CC3)c2)c1 [Example 31] | 2160 | 36 |
| COc1ccc(F)c(-c2ccc3c(c2F)CC[C@H]3Oc2cccc([C@H](C3CC3)[C@H](C)C(=O)O)c2)c1 [Example 32] | 4.5 | 0.4 |

Results, then the compound that gave them:

| EC50 (Human GPR40 [1]) [nM] | EC50 (Human GPR40 [2]) [nM] | Compound |
| --- | --- | --- |
| 155 | 12 | COc1ccc(F)c(-c2cc3c(cc2F)[C@H](Oc2cccc([C@@H](CC(=O)O)C4CC4)c2)CC3)c1 [Example 33] |
| 107 | 4 | COc1ccc(F)c(-c2ccc3c(c2F)CC[C@H]3Oc2cccc([C@@H](CC(=O)O)C3CC3)c2)c1 [Example 34] |
| 2.9 | 0.2 | C[C@H](C(=O)O)[C@H](c1cccc(O[C@@H]2CCc3cc(-c4cc(O)ccc4F)ccc32)c1)C1CC1 [Example 35] |
| 357 | 7 | COc1ccc(F)c(-c2ccc3c(c2Cl)CC[C@H]3Oc2cccc([C@@H](CC(=O)O)C3CC3)c2)c1 [Example 36] |
| 145 | 1 | COc1ccc(F)c(-c2ccc3c(c2-c2cccc4ccn(C)c24)CC[C@H]3Oc2cccc([C@H](C3CC3)[C@H](C)C(=O)O)c2)c1 [Example 37] |
| 895 | 17 | COc1ccc(F)c(-c2ccc3c(n2)CC[C@H]3Oc2cccc([C@@H](CC(=O)O)C3CC3)c2)c1 [Example 38] |
| 151 | 5 | COc1ccc(F)c(-c2cc3c(cc2F)[C@H](Oc2cccc([C@@H](CC(=O)O)C4CC4)c2)CC3)c1 [Example 39] |
| 91 | 2 | COc1ccc(F)c(-c2cnc3c(c2)CC[C@H]3Oc2cccc([C@H](C3CC3)[C@H](C)C(=O)O)c2)c1 [Example 40] |
| 15 | < 0.2 | COc1ccc(F)c(-c2cc3c(cn2)[C@H](Oc2cccc([C@H](C4CC4)[C@H](C)C(=O)O)c2)CC3)c1 [Example 41] |
